Source: patent US20100119499A1, “STILBENE-BASED COMPOSITIONS AND METHODS OF USE THEREFOR” (priority 2009, published 2010)
Like-named read-outs stand apart in the source and are kept apart here.

Tests used:
[1] = system: streptozotocin-induced hyperglycemic rats; details: cited from earlier work
[2] = inhibition of citronellal thermo-oxidation; details: converted value in brackets
DPPH radical scavenging = details: converted value in brackets
humans = assay: oral pterostilbene combined with nutrients, athletic performance in humans; format: in vivo, human
Protocol: Additional work described herein addressed the effects of combining oral pterostilbene with various nutrients on athletic performance. Specifically, oral pterostilbene was administered with creatine supplements, and the effect of this combination was compared with the effect of creatine supplements alone.
The addition of exogenous dietary carbohydrates such as glucose, isolmaltulose, leucrose, trehalose, trehalulose, amylose, ribose, and maltodextrin to the creatine-containing supplement allowed for even higher pterostilbene dosing (up to 25 mg of oral pterostilbene) and produced an even more pronounced, immediate increase in athletic performance without the onset of hypoglycemia.
While not wishing to be bound by any particular theory, the inventors believe that pterostilbene increases or otherwise effects a change in the rate and quantity of the transfer of these nutrients from the blood plasma into the tissues and organs. Such dietary nutrients include, but are not limited to, creatine and its salts esters, amides and chelates, creatinol-O-phosphate, branched chain amino acids (leucine, isoleucine, valine) and their salts, esters, amides and chelates, branched chain keto-acids including, but not limited to ketoisocaproate and its salts, other ergogenic, performance-enhancing amino acids including, but not limited to, taurine, beta-alanine, arginine, ornithine, aspartic acid, glutamine, glutaric acid, agmatine, citrulline, norvaline, glycine, cysteine and their salts, ester, amides and chelates, performance enhancing dipeptides including, but not limited to, carnitine, anserine and carnosine and their salts and esters and proteins that are known to contain dipeptides such as whey or soy or egg protein isolates or concentrates or any combination of these non-carbohydrate based dietary nutrients.
Further, the addition and oral consumption of one or more exogenous dietary carbohydrates, including but not limited to rice oligodextrin, amylose, amylopectin, glucose, maltodextrin, maltose, isolmaltulose, leucrose, trehalulose, ribose, trehalose, and/or fructose in conjunction with pterostilbene and a non-carbohydrate based dietary nutrient or nutrients simultaneously further increases the athletic performance-enhancing effects of pterostilbene and the non-carbohydrate dietary nutrient(s) by up to 50% and also increases the tolerability of pterostilbene in humans by up to 50%.

rats = details: doses 10 mg/kg up to 40 mg/kg bodyweight; cited from earlier work
healthy, adult humans = assay: oral pterostilbene in humans, whole blood glucose by finger prick glucometer; format: in vivo
Protocol: In work described herein using pterostilbene orally in humans (supplied by Chromadex, 10005 Muirlands Boulevard, Suite G, Irvine, Calif. 92618, USA) dosing of oral pterostilbene was initially started at a lower dose than the calculated HED, with the intent of titrating the dose up as needed.
The test subject was immediately treated with oral glucose and other carbohydrates and recovered without other incident. […] At oral dosing above 0.165 mg/kg (actual dose tested 20 mg) pterostilbene is capable of inducing profound hypoglycemia (e.g., whole blood glucose at or below 55 mg/dL) and the side effects associated with this condition. Accordingly, at the doses predicted by the FDA/CDER formula, oral administration of pterostilbene to humans would likely be fatal.

[3] = ABAP-derived peroxyl radicals; cited from earlier work
[4] = total reactive antioxidant potential against ABAP-derived peroxyl radicals; details: converted value in brackets
normal human fibroblasts = details: cited from earlier work
MAO leukemia cell line = details: relative to cis-resveratrol; cited from earlier work
[5] = 5 mg oral (0.0486 mg/kg) added to creatine-containing liquid supplement vs supplement alone, one healthy person
[6] = pterostilbene plus non-carbohydrate nutrient(s) plus exogenous dietary carbohydrates, oral

Compound	lowering of blood glucose level [1]	EQ value, inhibition of cintronellal thermo-oxidation [2]	EC50, scavenging of DPPH radicals (DPPH radical scavenging)	effect on athletic performance (humans; 3 mg to 20 mg added to a creatine-containing supplement)	immediate increase in anaerobic work capacity (humans; [5])	immediate increase in maximal exertion power (humans; [5])	oral dose possible without the onset of hypoglycemia (humans; human, in vivo, po)	further increase of athletic performance-enhancing effects by added carbohydrates (humans; [6])	increase of tolerability in humans by added carbohydrates (humans; [6])	adverse effects (rats)	drop of whole blood glucose level (healthy, adult humans; 30 mg oral single dose (about 0.248 mg/kg), one healthy person, within fifteen minutes)	oral dose above which profound hypoglycemia and its side effects are induced (healthy, adult humans; profound hypoglycemia e.g. whole blood glucose at or below 55 mg/dL, actual dose tested 20 mg)	total reactive antioxidant potential [3]	total reactive antioxidant potential [4]	reduction of thiobarbituric acid reactive substances (TBARS) production (normal human fibroblasts)	ability to induce apoptosis compared to cis-resveratrol (MAO leukemia cell line)
COc1cc(/C=C/c2ccc(O)cc2)cc(OC)c1 [pterostilbene, trans-3,5-dimethoxy-4′-hydroxystilbene]	42%	~90.9 mg/mL	~7680 µg/mL	improves athletic performance dramatically	~12%	~8%	up to 25 mg	up to 50%	up to 50%	no adverse effects noted	about 50 mg/dL	above 0.165 mg/kg	237 ± 58 mM	~60.7 mg/mL	61%	–
Oc1ccc(/C=C/c2cc(O)cc(O)c2)cc1 [trans-reseveratrol]	–	–	–	–	–	–	–	–	–	–	–	–	–	–	–	ten times more potent
